Results taken from ChEMBL document CHEMBL1201862, “PubChem BioAssay data set” (2004).
Activity calls are given as the source filed them.

How the values were obtained:
[1] = biological target: Tumor necrosis factor (Homo sapiens, UniProt P01375); assay: analog potency on TNFa NF-kB signaling – cell-based, revised, SAR follow-up (AID 2337); assay type: functional
[2] = biological target: T1, Nucleotide-binding oligomerization domain-containing protein 1 (Homo sapiens, UniProt Q9Y239); assay: blockers of NOD1 pathway activity – revised, SAR follow-up (AID 2333); assay type: functional
T1 sequence (Q9Y239 whole entry): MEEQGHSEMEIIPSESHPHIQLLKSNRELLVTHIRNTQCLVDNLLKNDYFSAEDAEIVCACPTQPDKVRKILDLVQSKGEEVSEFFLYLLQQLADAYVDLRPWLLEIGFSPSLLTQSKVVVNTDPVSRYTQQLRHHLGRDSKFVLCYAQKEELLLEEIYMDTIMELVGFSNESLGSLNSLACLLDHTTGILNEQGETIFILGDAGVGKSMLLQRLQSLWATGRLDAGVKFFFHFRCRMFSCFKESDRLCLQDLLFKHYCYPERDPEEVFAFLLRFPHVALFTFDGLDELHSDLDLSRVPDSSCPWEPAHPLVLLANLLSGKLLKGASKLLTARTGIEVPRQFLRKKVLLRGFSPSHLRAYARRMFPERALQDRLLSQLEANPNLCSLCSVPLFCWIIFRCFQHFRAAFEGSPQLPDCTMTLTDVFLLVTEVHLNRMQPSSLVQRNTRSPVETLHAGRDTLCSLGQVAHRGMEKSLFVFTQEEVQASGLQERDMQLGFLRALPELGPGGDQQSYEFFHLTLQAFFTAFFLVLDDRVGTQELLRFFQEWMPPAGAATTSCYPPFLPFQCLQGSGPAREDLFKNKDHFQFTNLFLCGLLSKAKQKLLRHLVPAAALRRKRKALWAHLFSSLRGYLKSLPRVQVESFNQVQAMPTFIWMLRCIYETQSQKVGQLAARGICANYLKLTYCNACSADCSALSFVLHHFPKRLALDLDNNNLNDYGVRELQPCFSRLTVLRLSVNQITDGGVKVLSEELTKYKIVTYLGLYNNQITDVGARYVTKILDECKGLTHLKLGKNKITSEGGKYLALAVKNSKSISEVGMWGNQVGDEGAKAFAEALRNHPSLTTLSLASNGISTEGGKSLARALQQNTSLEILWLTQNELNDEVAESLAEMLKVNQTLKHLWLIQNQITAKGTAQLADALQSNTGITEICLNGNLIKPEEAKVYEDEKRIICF

[3] = biological target: Nucleotide-binding oligomerization domain-containing protein 2 (Homo sapiens, UniProt Q9HC29); assay: PubChem AID 2334; assay type: functional
[4] = tested on: HEK293; assay: cells; settings: Homo sapiens
[5] = tested on: HEK293; assay: Fluorescence-based counterscreen for potentiators or agonists of NPY-Y2: cell-based high-throughput dose response assay to identify inhibitors of cyclic nucleotide gated ion channel (CNGC) activity. In this assay, the parental HEK293 cell line transfected with a cyclic-nucleotide gated ion channel (CNGC)-based cAMP sensor is used to measure inhibition of isoproterenol-induced CNGC activity by test compound.; assay type: functional; settings: Homo sapiens
[6] = biological target: T2, Neuropeptide Y receptor type 2 (Homo sapiens, UniProt P49146); assay: Fluorescence-based cell-based high-throughput dose response assay for agonists of NPY-Y2. [Related pubchem assays: 1703 (Screening assay (CNGC inhibitors).), 1359 (Screening assay (NPY-Y2 potentiators or agonists).), 1304 (Screening assay (NPY-Y1 potentiators or agonists).), 1710 (Screening assay (NPY-Y2 agonists).), 1791 (Summary AID.)]; assay type: functional
T2 sequence (P49146 whole entry): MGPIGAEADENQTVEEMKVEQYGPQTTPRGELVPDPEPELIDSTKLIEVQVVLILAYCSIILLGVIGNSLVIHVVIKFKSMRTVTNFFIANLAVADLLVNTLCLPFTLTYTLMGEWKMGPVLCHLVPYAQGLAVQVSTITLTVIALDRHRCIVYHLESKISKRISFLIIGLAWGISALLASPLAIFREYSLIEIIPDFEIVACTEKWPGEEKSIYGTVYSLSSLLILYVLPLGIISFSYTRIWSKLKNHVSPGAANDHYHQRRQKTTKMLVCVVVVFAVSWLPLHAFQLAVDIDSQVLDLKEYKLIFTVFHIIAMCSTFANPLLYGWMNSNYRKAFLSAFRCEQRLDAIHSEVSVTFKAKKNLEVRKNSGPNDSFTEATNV

[7] = biological target: T3, Neuropeptide Y receptor type 1 (Homo sapiens, UniProt P25929); assay: Fluorescence-based counterscreen for agonists of NPY-Y2: cell-based high-throughput dose response assay for agonists of NPY-Y1.; assay type: functional
T3 sequence (P25929 whole entry): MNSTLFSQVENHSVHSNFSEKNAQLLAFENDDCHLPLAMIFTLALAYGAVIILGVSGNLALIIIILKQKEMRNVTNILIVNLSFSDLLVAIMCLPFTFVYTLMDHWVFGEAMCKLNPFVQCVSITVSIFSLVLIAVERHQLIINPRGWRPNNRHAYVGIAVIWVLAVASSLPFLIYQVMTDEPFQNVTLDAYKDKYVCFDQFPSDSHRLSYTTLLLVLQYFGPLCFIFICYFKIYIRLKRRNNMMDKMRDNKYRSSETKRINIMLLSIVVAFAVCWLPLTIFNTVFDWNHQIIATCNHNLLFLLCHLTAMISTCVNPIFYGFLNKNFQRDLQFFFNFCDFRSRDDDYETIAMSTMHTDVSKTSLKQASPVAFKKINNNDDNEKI

[8] = Counterscreen for IDE inhibitors: Luminescence-based cell-based high throughput dose response assay to identify compounds that are cytotoxic to HEK cells. [Related pubchem assays: 434962 (Primary screen (IDE inhibitors in singlicate)), 449730 (Counterscreen (Cytotoxicity in triplicate)), 435028 (Confirmation (IDE inhibitors in triplicate)) …; assay type: functional; settings: HEK293
[9] = biological target: T4, Insulin-degrading enzyme (Homo sapiens, UniProt P14735); assay: Dose Response: Fluorescence polarization-based cell-based high throughput dose response assay for inhibitors of insulin-degrading enzyme (IDE). [Related pubchem assays: 434962 (Primary screen (IDE inhibitors in singlicate)), 449730 (Counterscreen (Cytotoxicity in triplicate)), 435028 (Confirmation (IDE inhibitors in triplicate)), 434984 (Summary …; assay type: functional
T4 sequence (P14735 whole entry): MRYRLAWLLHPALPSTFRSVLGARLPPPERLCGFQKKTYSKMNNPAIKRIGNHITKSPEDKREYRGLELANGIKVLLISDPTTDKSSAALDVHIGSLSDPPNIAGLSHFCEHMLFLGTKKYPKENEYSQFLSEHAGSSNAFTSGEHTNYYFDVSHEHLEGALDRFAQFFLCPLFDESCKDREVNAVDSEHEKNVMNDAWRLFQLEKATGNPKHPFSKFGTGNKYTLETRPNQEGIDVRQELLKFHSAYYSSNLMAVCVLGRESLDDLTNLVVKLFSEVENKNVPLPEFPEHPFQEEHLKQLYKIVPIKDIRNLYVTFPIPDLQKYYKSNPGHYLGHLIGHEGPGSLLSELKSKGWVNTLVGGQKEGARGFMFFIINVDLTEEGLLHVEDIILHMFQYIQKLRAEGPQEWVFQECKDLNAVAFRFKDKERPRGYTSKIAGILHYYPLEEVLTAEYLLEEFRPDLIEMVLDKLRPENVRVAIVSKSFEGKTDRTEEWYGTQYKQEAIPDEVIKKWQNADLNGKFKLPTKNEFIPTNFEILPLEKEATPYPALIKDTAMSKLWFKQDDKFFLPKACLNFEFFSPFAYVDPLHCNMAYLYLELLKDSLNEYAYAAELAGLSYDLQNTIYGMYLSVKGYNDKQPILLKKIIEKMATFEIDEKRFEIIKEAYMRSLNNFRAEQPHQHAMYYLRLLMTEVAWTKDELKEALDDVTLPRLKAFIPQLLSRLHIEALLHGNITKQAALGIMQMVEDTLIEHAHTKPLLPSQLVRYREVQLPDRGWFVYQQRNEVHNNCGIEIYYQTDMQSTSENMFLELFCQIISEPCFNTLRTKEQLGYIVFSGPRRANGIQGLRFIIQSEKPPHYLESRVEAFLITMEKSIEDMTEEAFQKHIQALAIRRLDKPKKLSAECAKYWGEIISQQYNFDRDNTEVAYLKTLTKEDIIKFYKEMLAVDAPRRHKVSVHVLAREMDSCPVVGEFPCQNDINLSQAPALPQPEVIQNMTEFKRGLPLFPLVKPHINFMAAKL

[10] = biological target: DNA dC->dU-editing enzyme APOBEC-3A (Homo sapiens, UniProt P31941); assay: Dose Response confirmation of small molecule APOBEC3A DNA Deaminase Inhibitors via a fluorescence-based single-stranded DNA deaminase assay. [Related pubchem assays (depositor defined):AID493011, AID493024]; assay type: functional
[11] = biological target: DNA dC->dU-editing enzyme APOBEC-3G (Homo sapiens, UniProt Q9HC16); assay type: functional;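 also: Dose-response counterscreen measuring inhibition of APOBEC3G DNA deaminase activity, run while confirming APOBEC3A inhibitors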
[12] = biological target: Eukaryotic translation initiation factor 4H (Homo sapiens, UniProt Q15056); assay: eIF4H binding inhibition – biochemical, uHTS, fluorescence polarization, translation initiation inhibitor project, primary screen (AID 2012)
[13] = biological target: Polyadenylate-binding protein 1 (Homo sapiens, UniProt P11940); assay: blockers of PABP interaction with poly(A) – biochemical, fluorescence polarization, […] (AID 2014)
[14] = biological target: Guanyl-specific ribonuclease T1 (Aspergillus oryzae (strain ATCC 42149 / RIB 40), UniProt P00651); assay: inhibition of ribonuclease T1 activity – biochemical, fluorescence polarization, 1536-well, counter-screen for TPT1 inhibitor project, dose response (AID 2167)
[15] = biological target: Likely tRNA 2'-phosphotransferase (Candida albicans (strain SC5314 / ATCC MYA-2876) (Yeast), UniProt Q5A7N4); assay: inhibition of Candida TPT1 enzyme activity – biochemical, fluorescence polarization, dose response (AID 2160)
[16] = biological target: X-box-binding protein 1 (Homo sapiens, UniProt P17861); assay type: functional, Cricetulus griseus;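 also: confirmatory dose-response counter-screen serving a CHOP assay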
Chain of X-box-binding protein 1 (P17861 whole entry): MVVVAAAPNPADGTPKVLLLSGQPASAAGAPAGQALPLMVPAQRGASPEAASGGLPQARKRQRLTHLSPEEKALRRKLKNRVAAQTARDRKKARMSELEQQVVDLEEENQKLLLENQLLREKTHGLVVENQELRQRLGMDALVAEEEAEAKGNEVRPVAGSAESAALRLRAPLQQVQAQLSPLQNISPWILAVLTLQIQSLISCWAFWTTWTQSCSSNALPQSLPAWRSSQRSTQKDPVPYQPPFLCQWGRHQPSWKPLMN

Chain of Polyadenylate-binding protein 1 (P11940 whole entry): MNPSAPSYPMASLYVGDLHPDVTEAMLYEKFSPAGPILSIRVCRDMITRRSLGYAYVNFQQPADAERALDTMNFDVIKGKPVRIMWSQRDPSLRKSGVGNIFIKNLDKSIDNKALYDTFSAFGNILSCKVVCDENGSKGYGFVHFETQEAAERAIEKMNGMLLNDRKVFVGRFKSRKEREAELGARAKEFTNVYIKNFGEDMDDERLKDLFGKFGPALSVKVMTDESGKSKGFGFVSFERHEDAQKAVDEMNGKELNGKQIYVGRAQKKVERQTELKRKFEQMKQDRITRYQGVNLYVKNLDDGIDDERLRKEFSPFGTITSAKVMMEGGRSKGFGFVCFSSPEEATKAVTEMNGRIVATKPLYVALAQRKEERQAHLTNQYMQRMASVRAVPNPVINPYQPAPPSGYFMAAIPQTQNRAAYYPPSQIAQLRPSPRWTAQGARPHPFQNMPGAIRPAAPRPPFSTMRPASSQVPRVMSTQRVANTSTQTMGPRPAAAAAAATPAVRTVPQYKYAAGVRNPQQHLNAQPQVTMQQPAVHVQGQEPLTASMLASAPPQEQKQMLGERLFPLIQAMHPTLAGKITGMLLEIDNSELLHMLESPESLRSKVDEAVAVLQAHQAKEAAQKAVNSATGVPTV
Chain of Nucleotide-binding oligomerization domain-containing protein 2 (Q9HC29 whole entry, the tested form may be a part): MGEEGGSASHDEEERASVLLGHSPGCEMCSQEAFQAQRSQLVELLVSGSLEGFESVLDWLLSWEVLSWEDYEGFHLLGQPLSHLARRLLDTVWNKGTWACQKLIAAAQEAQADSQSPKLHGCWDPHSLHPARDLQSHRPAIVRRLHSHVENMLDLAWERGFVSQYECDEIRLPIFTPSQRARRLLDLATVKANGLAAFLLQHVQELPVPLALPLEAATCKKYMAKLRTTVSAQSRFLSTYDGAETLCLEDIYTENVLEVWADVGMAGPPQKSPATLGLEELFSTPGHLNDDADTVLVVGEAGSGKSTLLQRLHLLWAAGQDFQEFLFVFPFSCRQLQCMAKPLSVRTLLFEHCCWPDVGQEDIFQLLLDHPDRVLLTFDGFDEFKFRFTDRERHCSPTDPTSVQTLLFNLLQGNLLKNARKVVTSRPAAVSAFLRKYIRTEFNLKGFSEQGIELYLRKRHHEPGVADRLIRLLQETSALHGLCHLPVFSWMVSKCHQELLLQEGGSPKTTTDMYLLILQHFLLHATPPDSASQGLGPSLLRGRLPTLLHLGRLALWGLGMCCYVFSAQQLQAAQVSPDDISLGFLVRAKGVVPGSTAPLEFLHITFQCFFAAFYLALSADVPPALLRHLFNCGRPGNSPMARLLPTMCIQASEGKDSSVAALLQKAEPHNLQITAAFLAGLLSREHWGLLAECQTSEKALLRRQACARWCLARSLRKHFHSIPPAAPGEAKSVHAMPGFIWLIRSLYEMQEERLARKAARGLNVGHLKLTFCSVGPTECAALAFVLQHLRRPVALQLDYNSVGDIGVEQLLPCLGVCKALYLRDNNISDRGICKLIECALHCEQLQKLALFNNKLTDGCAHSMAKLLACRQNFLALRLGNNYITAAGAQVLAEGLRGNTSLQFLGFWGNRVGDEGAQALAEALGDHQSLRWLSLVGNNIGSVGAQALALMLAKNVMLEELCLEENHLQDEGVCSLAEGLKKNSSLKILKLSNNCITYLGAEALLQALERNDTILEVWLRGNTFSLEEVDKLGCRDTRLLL
Chain of Tumor necrosis factor (P01375 whole entry, the tested form may be a part): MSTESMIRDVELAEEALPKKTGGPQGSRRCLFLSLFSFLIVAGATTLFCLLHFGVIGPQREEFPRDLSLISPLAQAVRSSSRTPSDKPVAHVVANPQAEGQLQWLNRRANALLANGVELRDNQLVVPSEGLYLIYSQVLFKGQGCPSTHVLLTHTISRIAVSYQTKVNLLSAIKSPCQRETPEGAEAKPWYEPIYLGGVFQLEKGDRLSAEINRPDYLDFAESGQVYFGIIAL
Chain of DNA dC->dU-editing enzyme APOBEC-3A (P31941 whole entry): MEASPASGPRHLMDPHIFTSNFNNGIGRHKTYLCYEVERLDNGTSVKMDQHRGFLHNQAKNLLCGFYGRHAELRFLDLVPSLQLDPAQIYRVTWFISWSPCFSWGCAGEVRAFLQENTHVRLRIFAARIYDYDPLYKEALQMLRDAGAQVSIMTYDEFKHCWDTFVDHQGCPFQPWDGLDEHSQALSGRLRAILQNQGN
Chain of DNA dC->dU-editing enzyme APOBEC-3G (Q9HC16 whole entry): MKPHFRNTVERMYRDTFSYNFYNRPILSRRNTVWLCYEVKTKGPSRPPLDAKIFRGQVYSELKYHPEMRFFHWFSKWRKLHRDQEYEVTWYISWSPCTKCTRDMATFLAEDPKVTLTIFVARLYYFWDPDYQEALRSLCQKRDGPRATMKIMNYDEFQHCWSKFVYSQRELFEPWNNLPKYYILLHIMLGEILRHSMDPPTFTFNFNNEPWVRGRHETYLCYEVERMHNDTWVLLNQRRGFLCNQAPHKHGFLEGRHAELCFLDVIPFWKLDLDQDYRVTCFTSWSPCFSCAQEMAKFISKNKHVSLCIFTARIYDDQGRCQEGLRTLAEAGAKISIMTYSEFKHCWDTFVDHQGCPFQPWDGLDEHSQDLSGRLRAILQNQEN
Chain of Guanyl-specific ribonuclease T1 (P00651 whole entry): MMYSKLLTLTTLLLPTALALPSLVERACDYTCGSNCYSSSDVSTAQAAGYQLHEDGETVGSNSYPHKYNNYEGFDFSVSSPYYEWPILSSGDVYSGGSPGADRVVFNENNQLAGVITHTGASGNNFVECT
Chain of Likely tRNA 2'-phosphotransferase (Q5A7N4 whole entry): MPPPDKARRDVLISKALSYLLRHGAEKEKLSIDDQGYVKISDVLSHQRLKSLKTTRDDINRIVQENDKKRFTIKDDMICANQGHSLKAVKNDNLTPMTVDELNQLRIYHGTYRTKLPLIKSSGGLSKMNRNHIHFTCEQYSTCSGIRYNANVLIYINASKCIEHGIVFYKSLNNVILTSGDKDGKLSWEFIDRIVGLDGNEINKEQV

Structure (SMILES): CCC(=O)N1CCc2cc(S(=O)(=O)N3CCN(c4ccc(C(C)=O)cc4)CC3)ccc21
- IC50 [1]: > 20 µM (inactive)
- IC50 [2]: > 20 µM (inactive)
- IC50 [3]: > 20 µM (inactive)
- IC50 [4]: > 20 µM (inactive)

Structure (SMILES): COC(=O)c1ccc(NC(=O)CSc2nnc(C(C)NC(=O)c3ccccc3Cl)n2C)cc1 (stereo unspecified)
- EC50 [5]: 12.7 µM (not active)
- EC50 [6]: 19.8 µM (not active)
- EC50 [7]: 26.4 µM (not active)

Structure (SMILES): CC[n+]1c(/C=C2/C=CN(CCCS(=O)(=O)[O-])c3ccccc32)sc2ccccc21
- IC50 [8]: > 55.7 µM (not active)
- IC50 [9]: 12.3 µM (not active)
- IC50 [10]: 2.69 µM (active)
- IC50 [11]: 2.97 µM (active)

Structure (SMILES): C[N+]1(CCOS(=O)C23CC4CC(CC(C4)C2)C3)CCOCC1 (stereo unspecified)
- IC50 [12]: > 100 µM (inactive)
- IC50 [13]: 11.8 µM (active)

Structure (SMILES): Cc1ccc(N2C(=O)NC(=O)/C(=C\c3ccc([N+](=O)[O-])o3)C2=O)cc1
- IC50 [14]: > 55.7 µM (not active)
- IC50 [15]: 5.55 µM (active)

Structure (SMILES): COC(=O)c1scc(S(=O)(=O)C(C)C)c1NN=C(C#N)C(=O)c1ccc(Cl)cc1
- IC50 [1]: 10.9 µM (active)
- IC50 [2]: 5.43 µM (active)
- IC50 [3]: 5.88 µM (active)
- IC50 [4]: > 20 µM (inactive)

Structure (SMILES): Oc1ccc(N=Nc2cccc(C(F)(F)F)c2)cc1/C=N/c1ccc(N2CCOCC2)cc1
- Absolute IC50 (XBP1) [16]: 10 µM

Structure (SMILES): CC(C)(C)C(=O)N1CCN(c2ccnc3cc(Cl)ccc23)CC1
- IC50 [8]: 20.8 µM (not active)
- IC50 [9]: 18.6 µM (not active)

Structure (SMILES): CC[n+]1c(C)n(CC(O)COCC2CC=CCC2)c2ccccc21 (stereo unspecified)
- IC50 [12]: 92.2 µM (active)
- IC50 [13]: 5.47 µM (active)
- IC50 [10]: 2.12 µM (active)
- IC50 [11]: 3.86 µM (active)
